Assay results from US20250332081A1, “A Composition Against Osmotic Stress” (ELC Management LLC, priority 2022, published 2025).

Tested on: Normal Human Epidermal Keratinocytes (NHEK)
Experiment: Hyper-osmotic stress model in NHEKs: cell protection (alamarBlue viability) and combination index
Assay type: cell-based
Conditions: 48 hrs, hyper-osmotic stress 450 mOsm
Protocol: 1.2 g betaine (RDS 51-6709) was dissolved in 100 ml water with magnetic stirring for complete dissolution (Stock concentration 1.2%). 0.5 g Roselle extract (Hibiscus Sabdariffa Extract, Lucas Meyer Cosmetics Company) was dissolved in 10 mL water to achieve 5% stock solution. Then the solutions were filtrated with 0.22 um filter to keep sterile.
Normal Human Epidermal Keratinocytes (NHEK, FC-0007) purchased from Lifeline Cell Technology were incubated at 37° C., 95% humidity and 5% CO2 in keratinocyte cell culture medium (DermaLife K Keratinocyte Medium Complete Kit, LL-0007, Lifeline cell technology) supplemented with growth factors and 1% Penicillin/Streptomycin (Thermo Fischer, Waltham, MA, USA). Cells were passaged upon reaching 80% confluency.
NHEKs were plated in 96-well plates at 4,000/well density. After 24 h of incubation, the cells would have reached ˜80% confluency. 4.38 mg/mL NaCL was added in the culture media to achieve 450 osmolarity, on top of a baseline ˜300 mOsm.
On day 1, NHEKs were seeded with culture medium (DermaLife K Keratinocyte Medium Complete Kit) in a 96-well plate at 3,000 cells/well. After 24 h adherence, a 2-active combination experiment was carried out in vitro. 21 data points were used for dose and effect, including 4 concentrations for betaine, 7 concentrations for roselle extract and their combination as below (Table 1). Cells were treated with the combination of these actives for 48 hrs (Separately diluted with cell culture medium, followed by mixing together to treat cells). Then cells were washed with Dulbecco's phosphate buffered saline (DPBS) twice, and then incubated in medium with 10% alamarBlue™ Cell Viability Reagent (Thermo Fisher, Waltham, MA, USA) for 120 minutes. The incubated plates were measured for fluorescence using a Perkin Elmer plate reader (VICTOR Nivo), at Ex 530 nm/Em 615 nm. The value are recorded as RFU value.
The protective effect can be determined by Cell viability ratio (%) and Cell protection rate (%) as follows.
According to the theory proposed by Chou and Talalay (TING-CHAO CHOU. Theoretical Basis, Experimental Design, and Computerized Simulation of Synergism and Antagonism in Drug Combination Studies. Pharmacol Rev 58:621-681, 2006), the level of synergism can be typically measured and quantified by the drug combination index (CI, a quantitative measure of drug combination effects) from experimental dose-response data. The concentration of each compound, the protection ratio of each compound or the combo of these two compounds data were input into computer for automated analysis using CalcuSyn software. […]
Experiments were conducted at four levels of betaine and seven levels of roselle extract. […] Synergy value is classified based on the calculated combination index.

Question: For C[N+](C)(C)CC(=O)[O-] [Betaine, trimethylglycine], which “Protective Ratio (%)” value (betaine 0.03% alone) is on record?
Answer: The value was 8.924%.

Question: What about the “Protective Ratio (%)” value (betaine 0.06% alone) of the same compound?
Answer: Its value is 19.658%.

Question: What about the “Protective Ratio (%)” value (betaine 0.09% alone) of the same compound?
Answer: The value was 15.259%.

Question: And the “Protective Ratio (%)” value (betaine 0.1% alone)?
Answer: The value was 17.451%.
